These results are taken from paper PMC6478794, “Identification of a Novel Bcl-2 Inhibitor by Ligand-Based Screening and Investigation of Its Anti-cancer Effect on Human Breast Cancer Cells” (Frontiers in Pharmacology, 2019).

Details of data set [1]: method as in Seymour et al., 2013; Vandenberg and Cory, 2013. Particulars: ref Seymour et al., 2013, Vandenberg and Cory, cited from earlier work.
The subject of data set [2] is hematologic malignancies. The conditions noted are these: preclinical researches; cited from earlier work.
Details of data set [3]: method as in Schoenwaelder et al., 2011. Particulars: in vivo; ref Schoenwaelder et al., 2011; cited from earlier work.
For data set [4], the system named is Bcl-2. Particulars: cited from earlier work.
Data set [5] concerns Bcl-xl. Particulars: cited from earlier work.
For data set [6], the system named is T47D cells. Briefly: Annexin V-FITC/PI apoptosis assay (flow cytometry). Format: cell-based, human. The conditions noted are these: 48 h. Here is the method: Cell apoptosis was measured by Annexin V-FITC/PI double-staining Kit following the manufacturer's protocol. After treatment with 8 or 16 μM compound M1 for 48 h, cells were washed twice with cold phosphate buffer saline and then, suspended in 100 μL binding buffer (BD CAT. NO.556547) with 5 μL Annexin-V (BD CAT. NO.556420) and 5 μL PI (BD CAT. NO.556463). And cells were gently vortexed and incubated at room temperature for 15 min in darkness for flow cytometric (Becton Dickison) analysis.
(In general: In flow cytometry, cells or beads pass a laser one at a time.)

Data set [7] deals with MDA-MB-231 cells. The experiment in a line: EdU incorporation assay. Particulars: 4 or 8 μM, 48 h. In kind it is cell-based, human. On the procedure: Cell Proliferation was measured by Cell Light EdU DNA Cell Proliferation Kit. Cells were plated in 96-well culture plates. Cells were treated with 4 or 8 μM compound M1 for 48 h. At the end of treatment, cells were incubated with EdU reagent for 2 h at 37°C. Four percent of paraformaldehyde was used to fix the cells for 15 min. Then, cells were incubated with 0.5% Triton X-100 for 30 min. Washed cells with PBS three times. After that, cells were dyed with reaction cocktail for 30 min, and stained cell nucleus with 5 μg/mL of Hoechst 33,342 for 30 min. Images were observed by fluorescent microscope.

Data set [8] has as its system MDA-MB-231 cells. Briefly: Mitochondrial membrane potential (JC-1 staining). Format: cell-based, human. Particulars: 2 or 4 μM, 48 h. Here is the method: The MMP was measured using JC-1 assay kit according to the manufacturer's protocol. Cells were treated with 2 or 4 μM compound M1 for 48 h. The cells were cultured with JC-1 staining reagent (1x) at 37°C for 20 min. Cells were washed twice by JC-1 staining buffer. Next, the fluorescence intensity of JC-1 aggregate or monomer was observed by fluorescent microscopic. The ratio of aggregates to monomers was estimated as a symbol of mitochondrial membrane potential.

Data set [9] has as its system T47D and BT549 cells. The experiment in a line: Western blot of cleaved caspase-3 and cleaved PARP. In kind it is cell-based, human. Particulars: 48 h. Here is the method:
(§1) After compound M1 treatment, cells were lysed with RIPA buffer supplemented with protease inhibitor (Selleck) on ice for 30 min following by centrifugation at 14,000 × g for 15 min. Protein concentrations of the lysates were determined by BCA assay kit. Equivalent amounts of cellular protein were separated by SDS-PAGE and transferred to polyvinylidene difluoride membranes. And then, the membranes were blocked with 5% skim milk in TBST. The membranes were incubated with primary antibodies and peroxidase-conjugated secondary antibodies. Finally, the membranes were visualized with an enhanced chemiluminescent detection kit.
(Immunoblotting shows a protein as a band on a membrane.)

Data set [10] addresses recombinant human Bcl-2 protein (Homo sapiens, UniProt P10415). The experiment in a line: Surface plasmon resonance (SPR) binding assay. Here is the method:
The interaction between virtual screening candidates and Bcl-2 was determined using a PlexArray HT biological molecular interaction analyzer (PLEXERA LLC, USA). Candidates were covalently immobilized to the surface of sensor chip following the standard coupling reaction guide. Candidates were dissolved in DMSO to a final concentration of 10 μM. To analyze binding signal, a set of concentration gradient (700, 350, 175, 87.5 nM) of Bcl-2 protein were, respectively, diluted with PBST (1x PBS + 0.1% Tween-20, pH 7.4). PBST was also used as running buffer and samples were injected into the flow cell chamber of the sensor chip one by another with rate of 2 μL/s for 300 s. After the injection stage, running buffer was flowed over the chip surface for 300 s at 2 μL/s to allow the bound analytes to dissociate from the Bcl-2. The response unit (RU) of sample dots on the chip surface was recorded by the interaction analyzer during the whole process. In this way, dissociation curves obtained. HBS-P buffer was used as vehicle controls. Lastly, the changes in RU and the binding curve were measured by the PlexeraDE software (PLEXERA LLC, USA).
In general terms: In SPR one partner is held on a chip, and binding of the other changes the refractive index at the surface.

Data set [11] relates to MDA-MB-231, T47D, and BT549 cells. The experiment in a line: CCK-8 cell viability, dose and time course in three breast cancer cell lines. The conditions noted are these: series of doses 72 h; time course at 5, 2, or 3 μM. Format: cell-based, human. On the procedure:
(§2) The human breast cancer cell line MDA-MB-231, T47D, and BT549, were purchased from Cell Bank of Chinese Academy of Sciences. MDA-MB-231 were cultured in L-15 medium with 10% FBS at 37°C with 100% air, and T47D were cultured in DMEM/High glucose medium with 10% FBS at 37°C with 5% CO2. BT549 was cultured in 1,640 medium with 10% FBS at 37°C with 5% CO2.
(§3) Cell viability was measured by Cell Counting Kit-8 (CCK-8) assay following the manufacturer's protocol. Cells were plated at 5 × 10^3 cells per well in 96-well plates. After compound M1 treatment, cells were incubated with 10 μL CCK-8 for 2 h at 37°C with 5% CO2. The results were determined at 450 nm wave length.

The subject of data set [12] is MDA-MB-231 cells. Briefly: Clonogenic assay. Format: cell-based, human. Particulars: 4 or 8 μM, 48 h, then 10 days. On the procedure: The cells were plated at 200 cells per well in six-well culture plates followed by compound M1 for 48 h. At the end of treatment, the cells were cultured with fresh medium, and were grown at 37°C for 10 days. After colony formation, the cells were washed with PBS and immobilized by 4% formaldehyde at room temperature for 30 min. Finally, the cells were dyed with 0.5% crystal violet.

The test system of data set [13] is T47D cells. Briefly: Western blot of cytochrome c in mitochondrial and cytosol fraction. In kind it is cell-based, human. Particulars: 4 or 8 μM, 48 h. On the procedure:
as §1

For data set [14], the system named is MDA-MB-231 cells. The experiment in a line: Detection of reactive oxygen species (DCFH-DA). The conditions noted are these: 2 or 4 μM, 48 h. In kind it is cell-based, human. Here is the method:
Cells were treated with 2 or 4 μM compound M1 for 48 h. After that, cells were rinsed twice with PBS and incubated with DCFH-DA (10 μmol/L) at 37°C in a darkroom. The fluorescence intensity of DCF was detected at an emission wavelength of 525 nm and excitation wavelength of 488 nm.

The test system of data set [15] is MDA-MB-231 cells. The experiment in a line: Cell viability CCK-8 assay. Format: cell-based. The conditions noted are these: Homo sapiens, 48 h. Here is the method:
as §2, §3

The test system of data set [16] is Bcl-2. The experiment in a line: Western blot of Bcl-2 expression. In kind it is cell-based, human. The conditions noted are these: MDA-MB-231, T47D, and BT549 cells; different doses 48 h or 8 μM over time. Here is the method: as §1
In data set [17] the test system is Mcl-1. The conditions noted are these: cited from earlier work.
The conditions of data set [18]: cited from earlier work.
The mark [19] stands for this setting: compound immobilized on chip, Bcl-2 protein 700 nM, read-out: KD, dissociation equilibrium constant.

Like-named read-outs stand apart in the source and are kept apart here.

In general, koff refers to a measure of how fast the partners let go of each other. As usually defined, the kon is the second-order rate constant of association. Broadly, the Kd is the concentration at which binding is half-saturated. The term IC50 denotes the concentration at which inhibition is half-maximal. A low value points to greater potency in that assay.

recombinant human Bcl-2 protein, sequence (P10415 whole entry): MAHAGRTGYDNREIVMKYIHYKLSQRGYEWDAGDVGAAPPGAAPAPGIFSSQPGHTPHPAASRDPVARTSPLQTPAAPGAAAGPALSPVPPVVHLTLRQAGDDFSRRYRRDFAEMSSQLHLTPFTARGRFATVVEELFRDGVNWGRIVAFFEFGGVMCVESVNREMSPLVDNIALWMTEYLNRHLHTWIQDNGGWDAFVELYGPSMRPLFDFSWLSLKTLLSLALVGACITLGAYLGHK

For the compound `CC1(C)CCC(CN2CCN(c3ccc(C(=O)NS(=O)(=O)c4ccc(NCC5CCOCC5)c([N+](=O)[O-])c4)c(Oc4cnc5[nH]ccc5c4)c3)CC2)=C(c2ccc(Cl)cc2)C1` [ABT-199], in data set [1] (patients with chronic lymphocytic leukemia), the tumor lysis syndrome result is listed as “tumor lysis syndrome was caused”. In [1] (phase I trials), the “activity in patients with lymphoma” value is recorded as “greater activity than ABT-263” and the “effects on platelet counts” value is on record as “no significant effects on platelet counts”.
For `CC1(C)CCC(c2ccc(Cl)cc2)=C(CN2CCN(c3ccc(C(=O)NS(=O)(=O)c4ccc(N[C@H](CCN5CCOCC5)CSc5ccccc5)c(S(=O)(=O)C(F)(F)F)c4)cc3)CC2)C1` [ABT-263], the “cytotoxicity against hematologic malignancies” value in data set [2] is listed as “significant cytotoxicity”. In addition, the thrombocytopenia result in [3] is reported as “can cause thrombocytopenia”.
With `CN(C)CC[C@H](CSc1ccccc1)Nc1ccc(S(=O)(=O)NC(=O)c2ccc(N3CCN(Cc4ccccc4-c4ccc(Cl)cc4)CC3)cc2)cc1[N+](=O)[O-]` [ABT-737], the “cytotoxicity against hematologic malignancies” value in data set [2] is “significant cytotoxicity”. Also, the “affinity with Bcl-2” value in data set [4] was “high affinity”. The thrombocytopenia result in [3] was “can cause thrombocytopenia”. Further, the “affinity with Bcl-xl” value in data set [5] is “high affinity”.
Consider `COc1cc(N2C(C(C)=O)=NN(c3ccc(C)cc3)C2c2ccccc2OCc2ccccc2F)ccc1NC(=O)C(C)C` (stereo not drawn) [M1], for which the “apoptosis (Annexin V staining)” value in data set [6] is on record as “dose-dependent increase in apoptosis”. Also, the EdU-positive cells result in [7] is on record as “reduced number of EdU-positive cells”. Further, the “mitochondrial membrane potential (MMP)” value in [8] is reported as “caused the disturbance of MMP”. In addition, the “cleaved PARP and cleaved caspase-3” value in data set [9] is given as “increase”. In data set [10], the koff is 0.00142 s⁻¹ and the kon amounted to 4480 M⁻¹ s⁻¹. In data set [10] (M1, text and Figure 5B, read-out: KD), the Kd is 0.37 µM. Besides, in data set [10] (setting [19]), the dissociation constant Kd came out at 0.317 µM. In data set [11], the “cell proliferation (cell viability)” value is “inhibits cell proliferation in concentration- and time- dependent”. The clonogenicity entry in [12] is given as “reduced in a dose-dependent manner”. In addition, the “release of cytochrome c from mitochondria to cytosol” value in data set [13] is listed as “increased the release of cytochrome c”. Moreover, the “level of generated ROS” value in [14] is “elevation in the level of generated ROS”. Also, the IC50 in [15] was found to be 5 µM. For the same compound, the “protein expression of Bcl-2” value in data set [16] is reported as “decreased the protein expression of Bcl-2”.
As for `Cc1ccc(S(=O)(=O)N(Cc2ccc(Cl)cc2)c2ccccc2C(=O)Nc2ccccc2C(=O)NC(C)c2ccccc2)cc1` (stereo not drawn) [M2], the Kd in data set [10] (setting [19]) amounted to 0.406 µM. In data set [15], this compound returned an IC50 of over 50 µM.
`Cc1cc(C(=O)C2=C(O)C(=O)N(CCCN3CCOCC3)C2c2cccc(Oc3ccccc3)c2)ccc1OCc1ccccc1` (stereo not drawn) [M3]: in data set [10] (setting [19]), the Kd is 0.856 µM. This compound also showed an IC50 in [15] of over 50 µM.
On to `COc1cc(-c2cc(-c3ccccc3)nc(SCC(=O)Nc3cc(Cl)ccc3C)c2C#N)ccc1OCc1ccccc1` [M4], for which, in data set [10] (setting [19]), the dissociation constant Kd stood at 4.76 µM. Moreover, the IC50 in [15] is over 50 µM.
Consider `Cc1ccc(S(=O)(=O)N(Cc2ccc(Cl)cc2)c2ccccc2C(=O)Nc2ccc(S(=O)(=O)Nc3ccc(F)cc3)cc2)cc1` [M5], for which, in data set [10] (setting [19]), the Kd worked out at 0.57 µM. This compound registered an IC50 in data set [15] of over 50 µM.
For the compound `COc1ccc(/C=c2/sc3n(c2=O)C(c2ccc(Cl)cc2)C(C(=O)Nc2ccccc2)=C(C)N=3)cc1COc1ccc(F)cc1F` (stereo not drawn) [M6], in data set [10] (setting [19]), the Kd was 0.0685 µM. The same compound displayed an IC50 in data set [15] of over 50 µM.
For `CCN(CC)c1ccc(N2C(C(C)=O)=NN(c3ccc(Cl)cc3)C2c2ccccc2OCc2ccc(Cl)cc2Cl)cc1` (stereo not drawn) [M7], the Kd in [10] (setting [19]) amounted to 1.59 µM. Further, the IC50 in [15] was over 50 µM.
As to `CCOc1cccc(C2N(c3ccccc3)N=C(C(C)=O)N2c2ccc(N3CCOCC3)c(Cl)c2)c1OCc1ccc(Cl)cc1Cl` (stereo not drawn) [M8], the Kd in data set [10] (setting [19]) came out at 10.8 µM. Also, in [15], the half-maximal inhibitory concentration (IC50) was over 50 µM.
Consider AT-101, for which, in [17], the “affinity for Mcl-1” value is listed as “submicromolar concentrations”. Moreover, the clinical activity entry in [18] (early phase II trials, monotherapy or combination, lung and prostate cancers, ref Ready et al., 2011) is listed as “failed to exert significant clinical activity”. The tolerability in patients result in data set [18] (ref Liu et al., 2009) is on record as “well-tolerated”. The “affinity with Bcl-2” value in data set [4] is listed as “submicromolar concentrations”. Besides, the “affinity with Bcl-xl” value in [5] is reported as “submicromolar concentrations”.
